As usually defined, the IC50 is the concentration that inhibits the measured activity by half.

Like-named read-outs stand apart in the source and are kept apart here.

Data on one molecule can be found in patent US9895363B2, “Methods for modulating function of proliferating cell nuclear antigen (PCNA) and treating cancer with PCNA-targeting compounds” (University of Cincinnati, priority 2010, dated 2018).

In assay [1] the test system is primary bone marrow mesenchymal stem cells (MSC). The assay can be described thus: Growth inhibition, bone marrow mesenchymal stem cells. The format is cell-based, Human. Here is the method:
(§1) Growth inhibitory effects of PCNA-I1 and PCNA-I2 were assessed in human cancer cell lines, mouse cancer cell lines, immortalized mouse cell lines, and human primary cell lines. Specifically, growth inhibitory effects of PCNA-I1 and PCNA-I2 were assessed using MTT staining in the following cells lines: 1) human cancer cell lines including LNCaP (androgen receptor […]), 22Rv1, DU-145, LAPC-4, and PC-3 (androgen receptor […]) prostate cancer cells; MCF-7 and T47D breast cancer cells; A375 and MDA-MB435 melanoma cells; 2) mouse cancer cell lines including TRAMP-C2RE3 prostate cancer cells, B16 and K1735 melanoma cells, UV2237 fibrosarcoma cells, and CT-26 colon cancer cells; 3) immortalized mouse lung cell lines and mouse endothelial cell lines; and 4) primary human cell lines including umbilical endothelial cells (HUVEC, PromoCell, Heidelberg, Germany), primary bone marrow mesenchymal stem cells (HuMSC, PromoCell), primary human mammary epithelial cells (HuBrEC, Lonza, Walkersville, Md.), primary human prostate epithelial cells (HuPrEC, Lonza), and primary mouse spleen lymphocytes (isolated in this laboratory), and primary mouse bone marrow stromal cells (isolated in this laboratory). […]
(§2) IC50 values were derived from growth inhibition curves. […] Inhibition of cell growth was calculated using the formula: growth inhibition (%)=(1−A570 of treated/A570 of control)×100. […]

The target of another assay is T1, PCNA (Homo sapiens, UniProt P12004).
T1 construct: endogenous PCNA was knocked down with transfection of PCNA-specific siRNA; endogenous in cells; host or cells: PC-3
The assay can be described thus: Association of PCNA with chromatin, PC-3 (NP-E/NP-R western blot). The format is cell-based. The procedure: The encircling of DNA and association with chromatin is required for PCNA to execute its function. Therefore, the effect of PCNA-I1 on the association of PCNA with chromatin was investigated. PC-3 cells were treated for various times with 0.5 μM of PCNA-I1 and lysed in buffer A (10 mM Tris-HCl, pH 7.4, 2.5 mM MgCl2, 0.5% NP-40, 1 mM DTT, 1 mM PMSF, and protease inhibitor cocktail). Samples were pelleted by centrifuge (1500×g, 2 min, 4° C.), and supernatant collected as NP-40-extractable ([…]) fraction. The pellet was washed in NP-40 buffer B (10 mM Tris-HCl, pH 7.4, 150 mM NaCl, 1 mM PMSF, and a protease inhibitor cocktail) to release the free form of PCNA. The cells were resuspended and digested in buffer C (10 mM Tris-HCl, pH 7.4, 10 mM NaCl, 5 mM MgCl2, 0.2 mM PMSF, and protease inhibitors) with 200 units/[…] of DNase I for 30 min at 37° C. After centrifugation at 13,000×g for 5 min at 4° C., the supernatant was collected and fractions were analyzed by western blotting. MCF-7, HeLa, and LNCaP cells were also subjected to treatment with 0.5 μM of PCNA-I1 and subjected to western blotting as previously discussed.
Background: Immunoblotting shows a protein as a band on a membrane.

For a further assay, the system named is Tumor Cells. In words: Growth inhibition, mean over tumor cell lines. The format is cell-based. As to conditions: mean over all tumor cell lines; read-out: IC50 Values, Tumor Cells, Mean ± SD. Here is the method:
as §1, §2

A further assay has as its system Normal Cells. The assay can be described thus: Growth inhibition, mean over normal cells. The class given is cell-based. The procedure:
as §1, §2

Assay [2] deals with UV2237 fibrosarcoma cells. The assay can be described thus: Growth inhibition by MTT staining, UV2237. As to conditions: 96 h, Mouse, treated four days. The format is cell-based. Here is the method:
as §1, §2

Assay [3] has as its system 22Rv1 prostate cancer cells. In words: Growth inhibition by MTT staining, 22Rv1. The conditions noted are these: 22Rv1, 96 h, Human tumor cells, treated four days. The class given is cell-based. Here is the method:
as §1, §2

Assay [4] has as its system Prostate Endothelial cells (Mu-Pr-Endo). The assay can be described thus: Growth inhibition, mouse prostate endothelial cells. The class given is cell-based. As to conditions: Endothelial cell. Here is the method: as §1, §2
Assay [5] has as its system primary mouse spleen lymphocytes. The assay can be described thus: Alamar blue assay of lymphocyte growth. The conditions noted are these: for IC50: Lymphocyte. The format is cell-based. Here is the method: IC50 values were derived from growth inhibition curves. Data for tumor cells are a mean of five to seven experiments. Data for primary cells are a mean of three experiments. […] Inhibition of cell growth was calculated using the formula: growth inhibition (%)=(1−A570 of treated/A570 of control)×100. IC50 (the concentration that inhibited cell growth by 50%) values were also determined. For evaluation of lymphocyte growth in suspension, an Alamar blue assay was performed, wherein freshly prepared mouse spleen lymphocytes were stimulated for 72 H with 2 ug/mL concanavalin A (Sigma Chemicals, St. Louis, […].). During the last 24 H, 20 μl/well of Alamar blue (Invitrogen, Carlsbad, Calif.) was added. The fluorescence intensity was measured at 530/580 (excitation/emission) in the FLUOstar Omega microplate reader (BMG LABTECH, Cary, N.C.).
The effects of PCNA-I1 on growth of tumor cells versus primary cells was also investigated. Specifically, the effects of PCNA-1I on the growth of primary cells was investigated using primary culture of mouse lymphocytes. An Alamar blue assay was performed with PC-3 cells as a positive control. Freshly prepared mouse spleen lymphocytes were stimulated for 72 H with 2 μg/mL of concanavalin A. During the last 24 H, 20 μL/well of alamar blue was added. The fluorescence intensity was measured at 530/580 (excitation/emission).
(In general: The colour change of resazurin is a common sign of viable cells or microbes.)

T1 sequence (P12004 whole entry): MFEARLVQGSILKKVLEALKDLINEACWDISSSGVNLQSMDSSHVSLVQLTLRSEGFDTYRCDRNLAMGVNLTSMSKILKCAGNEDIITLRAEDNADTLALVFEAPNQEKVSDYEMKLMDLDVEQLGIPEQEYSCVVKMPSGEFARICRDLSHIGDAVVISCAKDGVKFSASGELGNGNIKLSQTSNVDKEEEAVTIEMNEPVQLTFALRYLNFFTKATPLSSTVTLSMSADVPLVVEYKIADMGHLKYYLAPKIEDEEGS

For `Cc1ccsc1C(=O)N/N=C/c1ccc2ccccc2c1O` [PCNA-I1], the IC50 in assay [1] (Homo sapiens, FIG. 2(C), read-out: IC50, MSC) is 0.989 µM; in assay [1] (Human, Bone Marrow, normal cells, read-out: IC50 Values, Mesenchymal Stem Cells), 0.99 µM; in the assay on Tumor Cells it was 0.19 ± 0.09 µM; in the assay with Normal Cells (mean over all normal cells, read-out: IC50 Values, Normal Cells, Mean ± SD), 1.43 ± 0.45 µM; in assay [2], 0.25 µM; in assay [3], 0.18 µM. The IC50 in assay [4] (Mouse, Blood Vessel, normal cells, read-out: IC50 Values, Prostate Endothelial) was 0.68 µM; in assay [4] (Mus musculus, FIG. 2(C), read-out: IC50, Mu-Pr-Endo), 0.677 µM; in assay [5] (FIG. 2(B), Alamar blue assay, mouse spleen lymphocytes, read-out: IC50, lymphocytes), 1.5 µM; in assay [5] (Mouse, normal cells, Alamar blue, read-out: IC50 Values, Spleen Lymphocytes), 1.5 µM. In addition, the “PCNA in NP-E fraction (free-form PCNA), time course” value on PCNA (PC-3, 0.5 μM, FIG. 10(A)) is on record as “not significantly altered in cells treated by PCNA-I1 for up to 8 H but reduced in cells treated for 16 H”. Further, the “PCNA in NP-R fraction (chromatin-associated PCNA), time course” value at PCNA (PC-3, 0.5 μM, FIG. 10(A)) is “reduced in 1 to 2 H”. In addition, the “Chromatin-associated and free form PCNA, concentration dependence” value on PCNA (PC-3, FIG. 10(B)) was “at concentration of 0.5 μM or lower mainly reduced the level of chromatin-associated PCNA and at concentration of 1 μM or higher led to a reduction of both the chromatin-associated and free form PCNA”. In addition, the “Concentrations inhibiting growth of normal cells by 50% relative to those for tumor cells” value with Normal Cells (normal vs tumor cells, p<0.001) is recorded as “approximately 8 times”. Also, in assay [5] (with or without concanavalin A), the “Lymphocyte growth at low concentrations” value is “promoted lymphocyte growth at concentrations below the cytotoxic or cytostatic doses”.
